Laboratory results published in patent US12600728B2, “Interleukin-17 inhibitors” (priority 2020, dated 2026).
Read-outs that look alike come from different tables or passages of the source.

Assays:
[1] = biological target: biotinylated human IL-17A / AF647-labeled human IL-17RA (Homo sapiens, UniProt Q16552); assay: Human IL-17A×IL-17RA TR-FRET assay; type: binding
Experimental: Human IL-17A×IL-17RA TR-FRET Assay
Each compound concentration is tested in duplicate.
The final total assay volume is 10 μL.
Each plate contains test compounds in columns 1-22 and controls in columns 23 and 24. The neutral control (NC) contains all the assay components, but DMSO instead of test compound. […] The fluorescence values for emission at 615 nm and 665 nm are loaded to the evaluation software Helios.
From the activity data at each compound concentration, the IC50 values are obtained using the 4-parameter logistic function (“Hill-slope model”) of Helios.

[2] = biological target: recombinant human IL-17AA (Homo sapiens, UniProt Q16552); assay: IL-6 release from NHDF cells, IL-17AA plus TNF-α stimulation; type: cell-based; details: NHDF cells, 24 hours, IL-6 by ELISA
Sequence of recombinant human IL-17AA (Q16552 24-155): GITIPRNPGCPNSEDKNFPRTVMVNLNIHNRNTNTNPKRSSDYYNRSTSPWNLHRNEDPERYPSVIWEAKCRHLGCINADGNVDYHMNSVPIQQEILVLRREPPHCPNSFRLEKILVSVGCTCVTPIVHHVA
Experimental: IL-6 Release from NHDF Cells (Normal Human Dermal Fibroblasts)
NHDF cells isolated from normal adult mesoderm, connective tissues were cultured in fibroblast growth medium containing 2% supplement. […] The cells were allowed to adhere overnight before they were incubated with the compound/cytokine cocktail.
Diluted compounds were pre-incubated with recombinant human IL-17AA or IL-17AF plus human TNF-α for 30 minutes at room temperature on a shaker. […] The cells were incubated with the compound/cytokines cocktail for 24 hours at 37° C. (5% CO2). […] The final DMSO or plasma concentrations were 0.1% or 20%, respectively. All compound incubations were done in duplicate. The supernatants were collected to quantify IL-6 by ELISA according to the manufacturers instructions. The optical density was measured at 450 nm by an EnVision Multilabel Plate Reader (Perkin Elmer). The IL-6 levels produced after TNF-α stimulation were subtracted from the IL-6 produced after IL-17/TNF-α co-stimulation. These IL-17-specific IL-6 concentrations were used for […] value calculation.

[3] = TR-FRET, biotinylated human IL-17A 5 nM, AF647-labeled human IL-17RA 30 nM, read-out: IL17AA FRET/ IL17Rawt IC50
[4] = IL-17AA 30 pM plus TNF-α 6 pM, read-out: IL17AA + TNF IC50 IL-6
[5] = TR-FRET, 5 nM IL-17A, 30 nM IL-17RA, read-out: IL17AA FRET/ IL17Rawt IC50
[6] = IL-17AA 30 pM + TNF-α 6 pM, read-out: IL17AA + TNF IC50 IL-6

Sequence of biotinylated human IL-17A / AF647-labeled human IL-17RA (Q16552 24-155): as above

| Compound | IC50 [1, 3] [nM] | IC50 [1, 5] [nM] | further results |
| --- | --- | --- | --- |
| Cc1c(-c2ccc(NC(=O)[C@@H](NC(=O)c3ccnn3C)C3CCCCC3)nc2)c(Cl)cc[n+]1[O-] [Example 60, (S)-4-chloro-6′-(2-cyclohexyl-2-(1-methyl-1H-pyrazole-5-carboxamido)acetamido)-2-methyl-[3,3′-bipyridine] 1-oxide] | 123 | – | IC50 [2, 4]: 236 nM |
| Cc1c(-c2ccc(NC(=O)C(NC(=O)c3ccnn3C)C3CCC(C)CC3)cc2)c(Cl)cc[n+]1[O-] [Example 46, 4-chloro-2-methyl-3-(4-((S)-2-(1-methyl-1H-pyrazole-5-carboxamido)-2-((1r,4S)-4-methylcyclohexyl)acetamido)phenyl)pyridine 1-oxide] | 18 | – | IC50 [2, 4]: 4 nM |
| Cc1c(-c2ccc(NC(=O)[C@@H](NC(=O)c3ccnn3C)C3CCCCC3)cc2)c(C(C)C)cc[n+]1[O-] [Example 224, (S)-3-(4-(2-cyclohexyl-2-(1-methyl-1H-pyrazole-5-carboxamido)acetamido)phenyl)-4-isopropyl-2-methylpyridine 1-oxide] | – | 2190 | IC50 [2, 6]: 108 nM |
| Cc1cc[n+]([O-])c(C)c1-c1ccc(NC(=O)[C@@H](NC(=O)c2ccc3n2CCN(C)C3)C(C)c2ccccc2Cl)cc1 (stereo partly drawn) [Example 213, 3-(4-((2S)-3-(2-chlorophenyl)-2-(2-methyl-1,2,3,4-tetrahydropyrrolo[1,2-a]pyrazine-6-carboxamido)butanamido)phenyl)-2,4-dimethylpyridine 1-oxide] | – | 533 | IC50 [2, 6]: 2580 nM |
| Cc1cc[n+]([O-])c(C)c1-c1ccc(NC(=O)[C@@H](NC(=O)c2ccc3n2CCNC3)C2CCC(F)(F)CC2)cc1 [Example 207, (S)-3-(4-(2-(4,4-difluorocyclohexyl)-2-(1,2,3,4-tetrahydropyrrolo[1,2-a]pyrazine-6-carboxamido)acetamido)phenyl)-2,4-dimethylpyridine 1-oxide] | – | 303 | IC50 [2, 6]: 69 nM |
| Cc1c(-c2ccc(NC(=O)[C@@H](NC(=O)c3ccc4n3CCN(C)C4)C3CCCCC3)cc2F)ccc[n+]1[O-] [Example 126, (S)-3-(4-(2-cyclohexyl-2-(2-methyl-1,2,3,4-tetrahydropyrrolo[1,2-a]pyrazine-6-carboxamido)acetamido)-2-fluorophenyl)-2-methylpyridine 1-oxide] | 228 | – | IC50 [2, 4]: 62 nM |
| Cc1cc[n+]([O-])c(C)c1-c1ccc(NC(=O)[C@@H](NC(=O)c2ccnn2C)C2CCCCCC2)nc1 [Example 148, (S)-6′-(2-cycloheptyl-2-(1-methyl-1H-pyrazole-5-carboxamido)acetamido)-2,4-dimethyl-[3,3′-bipyridine] 1-oxide] | – | 125 | IC50 [2, 6]: 131 nM |
| Cc1c(-c2ccc(NC(=O)[C@@H](NC(=O)c3ccnn3C)[C@H]3CCCC(F)(F)C3)cc2F)c(Cl)cc[n+]1[O-] [Example 110, 4-chloro-3-(4-((S)-2-((S)-3,3-difluorocyclohexyl)-2-(1-methyl-1H-pyrazole-5-carboxamido)acetamido)-2-fluorophenyl)-2-methylpyridine 1-oxide] | – | – | IC50 [2, 4]: 8 nM |
| Cc1nccc(Cl)c1-c1ccc(NC(=O)[C@@H](NC(=O)c2ccnn2C)C2CCCCC2)cc1F [compound 137, N-((1S)-2-((4-(4-chloro-2-methylpyridin-3-yl)-3-fluorophenyl)amino)-1-cyclohexyl-2-oxoethyl)-1-methyl-1H-pyrazole-5-carboxamide, reference compound] | – | – | IC50 ([2]; IL-17AA 30 pM + TNF-α 6 pM, reference examples (pyridines), read-out: IL 17AA + TNF IC50 IL-6): 578 nM |
| Cc1nocc1C(=O)NC(C(=O)Nc1ccc(-c2c(Cl)cc[n+]([O-])c2C)cc1)C1CC2CC2C1 (single isomer, unassigned) [Example 146] | – | – | IC50 [2, 6]: 57 nM |
| Cc1c(-c2ccc(NC(=O)[C@@H](NC(=O)c3ccnn3C)C3CCCCC3)cc2F)ccc[n+]1[O-] [Example 83, (S)-3-(4-(2-cyclohexyl-2-(1-methyl-1H-pyrazole-5-carboxamido)acetamido)-2-fluorophenyl)-2-methylpyridine 1-oxide] | – | – | IC50 [2, 4]: 115 nM |
| Cc1cc[n+]([O-])c(C)c1-c1ccc(NC(=O)[C@@H](NC(=O)c2ccc3n2CCNC3)C(C)c2ccccc2Cl)cc1 (stereo partly drawn) [Example 216, 3-(4-((2S)-3-(2-chlorophenyl)-2-(1,2,3,4-tetrahydropyrrolo[1,2-a]pyrazine-6-carboxamido)butanamido)phenyl)-2,4-dimethylpyridine 1-oxide] | – | 796 | – |
| Cc1cc[n+]([O-])cc1-c1ccc(NC(=O)[C@@H](NC(=O)c2ccnn2C)C2CCCCC2)cc1F [Example 168, (S)-3-(4-(2-cyclohexyl-2-(1-methyl-1H-pyrazole-5-carboxamido)acetamido)-2-fluorophenyl)-4-methylpyridine 1-oxide] | – | – | IC50 ([1]; IL17AA FRET/ IL17Rawt IC50, TR-FRET, 5 nM IL-17A, 30 nM IL-17RA): 1470 nM |
| CCn1nccc1C(=O)NC(C(=O)Nc1ccc(-c2c(Cl)cc[n+]([O-])c2C)cc1)C1CCC(C(F)(F)F)CC1 [Example 20, 4-chloro-3-(4-((S)-2-(1-ethyl-1H-pyrazole-5-carboxamido)-2-((1r,4S)-4-(trifluoromethyl)cyclohexyl)acetamido)phenyl)-2-methylpyridine 1-oxi] | 680 | – | – |
| Cc1c(-c2ccc(NC(=O)C(NC(=O)c3ccc4n3CCNC4)[C@@H]3C[C@@H]4[C@H](C3)C4(F)F)cc2)c(Cl)cc[n+]1[O-] (stereo partly drawn) [Example 211, 4-chloro-3-(4-(2-((1R,3s,5S)-6,6-difluorobicyclo[3.1.0]hexan-3-yl)-2-(1,2,3,4-tetrahydropyrrolo[1,2-a]pyrazine-6-carboxamido)acetamido)phenyl)-2-methylpyridine 1-oxide] | – | 499 | – |
| Cc1c(-c2ccc(NC(=O)[C@@H](NC(=O)c3ccnn3C)C3CCCCC3)c(Cl)c2)c(Cl)cc[n+]1[O-] [Example 85, (S)-4-chloro-3-(3-chloro-4-(2-cyclohexyl-2-(1-methyl-1H-pyrazole-5-carboxamido)acetamido)phenyl)-2-methylpyridine 1-oxide] | 20900 | – | – |
| Cc1cc[n+]([O-])c(C)c1-c1ccc(NC(=O)[C@@H](NC(=O)c2conc2CN(C)C)C2CCCCC2)cc1 [Example 80, (S)-3-(4-(2-cyclohexyl-2-(3-((dimethylamino)methyl)isoxazole-4-carboxamido)acetamido)phenyl)-2,4-dimethylpyridine 1-oxide] | 4450 | – | – |
| COCc1nocc1C(=O)N[C@H](C(=O)Nc1ccc(-c2cc(Cl)c[n+]([O-])c2C)cc1)C1CCC(F)(F)CC1 [Example 176, (S)-5-chloro-3-(4-(2-(4,4-difluorocyclohexyl)-2-(3-(methoxymethyl)isoxazole-4-carboxamido)acetamido)phenyl)-2-methylpyridine 1-oxide] | – | 1610 | – |
| Cc1cc[n+]([O-])c(C)c1-c1ccc(NC(=O)C(NC(=O)c2ccnn2C)C2(C)CCCCC2)cc1 (stereo not drawn) [Example 43, 2,4-dimethyl-3-(4-(2-(1-methyl-1H-pyrazole-5-carboxamido)-2-(1-methylcyclohexyl)acetamido)phenyl)pyridine 1-oxide] | 78900 | – | – |
| Cc1c(-c2ccc(NC(=O)C(NC(=O)c3ccc4n3CCN(C)C4)[C@@H]3C[C@@H]4[C@H](C3)C4(F)F)cc2)c(Cl)cc[n+]1[O-] (stereo partly drawn) [Example 165, 4-chloro-3-(4-(2-((1R,3s,5S)-6,6-difluorobicyclo[3.1.0]hexan-3-yl)-2-(2-methyl-1,2,3,4-tetrahydropyrrolo[1,2-a]pyrazine-6-carboxamido)acetamido)phenyl)-2-methylpyridine 1-oxide] | – | 301 | – |
| COCCN1CCn2c(ccc2C(=O)N[C@H](C(=O)Nc2ccc(-c3c(C)cc[n+]([O-])c3C)cc2)C2CCCCC2)C1 [Example 135, (S)-3-(4-(2-cyclohexyl-2-(2-(2-methoxyethyl)-1,2,3,4-tetrahydropyrrolo[1,2-a]pyrazine-6-carboxamido)acetamido)phenyl)-2,4-dimethylpyridine 1-oxide] | 451 | – | – |
| CCn1nccc1C(=O)N[C@H](C(=O)Nc1ccc(-c2c(C(F)(F)F)cc[n+]([O-])c2C)cc1)C1CC2CC2C1 (stereo partly drawn) [Example 223, 3-(4-((2S)-2-(bicyclo[3.1.0]hexan-3-yl)-2-(1-ethyl-1H-pyrazole-5-carboxamido)acetamido)phenyl)-2-methyl-4-(trifluoromethyl)pyridine 1-oxide] | – | 9080 | – |
| Cc1nc(C(F)(F)F)c(C(=O)N[C@H](C(=O)Nc2ccc(-c3c(C(F)(F)F)cc[n+]([O-])c3C)cc2)C2CCCC2)s1 [Example 73, (S)-3-(4-(2-cyclopentyl-2-(2-methyl-4-(trifluoromethyl)thiazole-5-carboxamido)acetamido)phenyl)-2-methyl-4-(trifluoromethyl)pyridine 1-oxide] | 1410 | – | – |
